Assay results taken from ChEMBL document CHEMBL5625192, “Discovery of Ibrutinib-based BTK PROTACs with in vivo anti-inflammatory efficacy by inhibiting NF-κB activation” (Eur J Med Chem, 2023).
Converted amounts (≈) assume the structure as drawn. The source made the active and inactive calls. The rule behind the calls is not given here.

Columns and labels:
[1] = biological target: T1, Protein cereblon/Tyrosine-protein kinase BTK (Homo sapiens, UniProt Q06187+Q96SW2); assay: PROTAC activity at CRBN/BTK in human Ramos cells assessed as induction of BTK degradation at 100 nM incubated for 24 hrs by Western blot analysis relative to control; type: cell-based
Target sequence in this assay (Q06187 2-659 limits assumed): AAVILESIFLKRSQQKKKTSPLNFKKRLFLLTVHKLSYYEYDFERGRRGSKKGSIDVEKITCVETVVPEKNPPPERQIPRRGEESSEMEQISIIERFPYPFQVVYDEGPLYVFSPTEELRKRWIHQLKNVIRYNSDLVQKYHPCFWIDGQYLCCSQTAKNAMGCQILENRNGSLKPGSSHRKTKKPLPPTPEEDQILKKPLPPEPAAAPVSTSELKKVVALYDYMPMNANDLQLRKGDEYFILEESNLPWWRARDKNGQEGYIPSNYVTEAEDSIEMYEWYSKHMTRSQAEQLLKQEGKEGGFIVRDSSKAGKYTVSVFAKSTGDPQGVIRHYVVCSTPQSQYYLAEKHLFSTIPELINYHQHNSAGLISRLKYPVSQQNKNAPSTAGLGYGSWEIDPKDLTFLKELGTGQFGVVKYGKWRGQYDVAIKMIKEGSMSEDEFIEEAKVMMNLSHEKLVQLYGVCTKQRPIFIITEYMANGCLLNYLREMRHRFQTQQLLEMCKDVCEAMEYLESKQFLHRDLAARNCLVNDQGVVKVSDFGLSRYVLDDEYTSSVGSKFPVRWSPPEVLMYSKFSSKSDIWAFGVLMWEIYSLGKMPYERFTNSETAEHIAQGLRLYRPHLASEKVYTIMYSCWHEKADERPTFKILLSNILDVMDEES
Target sequence in this assay (Q96SW2 whole entry partner): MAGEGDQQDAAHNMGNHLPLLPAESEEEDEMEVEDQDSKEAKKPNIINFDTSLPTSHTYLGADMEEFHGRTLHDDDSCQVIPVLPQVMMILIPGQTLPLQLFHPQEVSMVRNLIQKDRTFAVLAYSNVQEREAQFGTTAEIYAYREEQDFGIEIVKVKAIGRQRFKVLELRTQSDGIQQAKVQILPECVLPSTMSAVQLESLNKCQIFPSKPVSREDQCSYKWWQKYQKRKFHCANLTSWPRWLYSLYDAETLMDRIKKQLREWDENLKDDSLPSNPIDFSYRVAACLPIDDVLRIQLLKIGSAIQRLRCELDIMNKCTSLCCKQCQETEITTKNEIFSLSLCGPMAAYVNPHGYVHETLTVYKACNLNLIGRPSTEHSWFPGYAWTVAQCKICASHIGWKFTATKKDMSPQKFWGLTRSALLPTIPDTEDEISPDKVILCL

[2] = biological target: T1, Protein cereblon/Tyrosine-protein kinase BTK; assay: PROTAC activity at CRBN/BTK in human Ramos cells assessed as induction of BTK degradation incubated for 24 hrs by Western blot analysis; type: cell-based
Target sequence in this assay (Q06187 whole entry): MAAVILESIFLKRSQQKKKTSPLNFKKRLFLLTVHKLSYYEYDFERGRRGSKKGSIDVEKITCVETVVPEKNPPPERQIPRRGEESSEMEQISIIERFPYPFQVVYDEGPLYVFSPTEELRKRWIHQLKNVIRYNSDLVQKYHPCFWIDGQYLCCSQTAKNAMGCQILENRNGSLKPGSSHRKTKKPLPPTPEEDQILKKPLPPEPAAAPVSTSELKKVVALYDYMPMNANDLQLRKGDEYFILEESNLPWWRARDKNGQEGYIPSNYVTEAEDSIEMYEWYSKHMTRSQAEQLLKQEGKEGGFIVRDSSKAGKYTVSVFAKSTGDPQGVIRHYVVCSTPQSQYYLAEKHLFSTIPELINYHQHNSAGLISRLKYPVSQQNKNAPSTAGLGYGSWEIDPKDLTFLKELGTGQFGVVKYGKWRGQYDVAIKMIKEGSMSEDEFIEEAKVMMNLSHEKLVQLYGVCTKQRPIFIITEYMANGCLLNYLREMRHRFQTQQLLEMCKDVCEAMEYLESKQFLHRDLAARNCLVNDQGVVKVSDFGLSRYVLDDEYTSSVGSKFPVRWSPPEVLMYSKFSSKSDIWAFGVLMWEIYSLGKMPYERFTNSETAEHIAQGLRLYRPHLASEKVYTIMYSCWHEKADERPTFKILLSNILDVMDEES
Target sequence in this assay (Q96SW2 whole entry): as the sequence (Q96SW2 whole entry partner) above

[3] = biological target: T1, Protein cereblon/Tyrosine-protein kinase BTK; assay: PROTAC activity at CRBN/BTK in human Ramos cells assessed as induction of BTK degradation by measuring maximal efficacy incubated for 24 hrs by Western blot analysis relative to control; type: cell-based
Target sequence in this assay (Q06187 2-659 limits assumed): as the sequence (Q06187 2-659 limits assumed) above
Target sequence in this assay (Q96SW2 whole entry partner): as the sequence (Q96SW2 whole entry partner) above

[4] = biological target: T1, Protein cereblon/Tyrosine-protein kinase BTK; assay: PROTAC activity at CRBN/BTK in human Ramos cells assessed as hook effect at 10000 nM incubated for 24 hrs by Western blot analysis; type: cell-based
Target sequence in this assay (Q06187 2-659 limits assumed): as the sequence (Q06187 2-659 limits assumed) above
Target sequence in this assay (Q96SW2 whole entry partner): as the sequence (Q96SW2 whole entry partner) above

[5] = biological target: T1, Protein cereblon/Tyrosine-protein kinase BTK; assay: PROTAC activity at CRBN/BTK in human MINO cells assessed as induction of BTK degradation incubated for 24 hrs by Western blot analysis; type: cell-based
Target sequence in this assay (Q06187 whole entry): as the sequence (Q06187 whole entry) above
Target sequence in this assay (Q96SW2 whole entry): as the sequence (Q96SW2 whole entry partner) above

[6] = biological target: T1, Protein cereblon/Tyrosine-protein kinase BTK; assay: PROTAC activity at CRBN/BTK in human MINO cells assessed as induction of BTK degradation by measuring maximal efficacy incubated for 24 hrs by Western blot analysis relative to control; type: cell-based
Target sequence in this assay (Q06187 2-659 limits assumed): as the sequence (Q06187 2-659 limits assumed) above
Target sequence in this assay (Q96SW2 whole entry partner): as the sequence (Q96SW2 whole entry partner) above

[7] = biological target: T1, Protein cereblon/Tyrosine-protein kinase BTK; assay: PROTAC activity at CRBN/BTK in human MINO cells assessed as hook effect upto 10000 nM incubated for 24 hrs by Western blot analysis; type: cell-based
Target sequence in this assay (Q06187 2-659 limits assumed): as the sequence (Q06187 2-659 limits assumed) above
Target sequence in this assay (Q96SW2 whole entry partner): as the sequence (Q96SW2 whole entry partner) above

[8] = biological target: T1, Protein cereblon/Tyrosine-protein kinase BTK; assay: PROTAC activity at CRBN/BTK in human Ramos cells assessed as induction of BTK degradation at 100 nM measured within 4 hrs by Western blot analysis; type: cell-based
Target sequence in this assay (Q06187 2-659 limits assumed): as the sequence (Q06187 2-659 limits assumed) above
Target sequence in this assay (Q96SW2 whole entry partner): as the sequence (Q96SW2 whole entry partner) above

[9] = biological target: T1, Protein cereblon/Tyrosine-protein kinase BTK; assay: PROTAC activity at CRBN/BTK in human Ramos cells assessed as induction of BTK degradation at 100 nM measured after 8 hrs by Western blot analysis relative to control; type: cell-based
[10] = biological target: T1, Protein cereblon/Tyrosine-protein kinase BTK; assay: PROTAC activity at CRBN/BTK in human Ramos cells assessed as induction of BTK degradation at 100 nM pretreated with ibrutinib for 2 hrs followed by compound treatment and measured after 8 hrs by Western blot analysis; type: cell-based
[11] = biological target: T1, Protein cereblon/Tyrosine-protein kinase BTK; assay: PROTAC activity at CRBN/BTK in human Ramos cells assessed as induction of BTK degradation at 100 nM pretreated with pomalidomide for 2 hrs followed by compound treatment and measured after 8 hrs by Western blot analysis; type: cell-based
[12] = biological target: T1, Protein cereblon/Tyrosine-protein kinase BTK; assay: PROTAC activity at CRBN/BTK in human Ramos cells assessed as induction of BTK degradation at 100 nM pretreated with MG132 for 2 hrs followed by compound treatment and measured after 8 hrs by Western blot analysis; type: cell-based
[13] = biological target: T1, Protein cereblon/Tyrosine-protein kinase BTK; assay: PROTAC activity at CRBN/BTK in human Ramos cells assessed as induction of BTK degradation at 100 nM pretreated with bafilomycin for 2 hrs followed by compound treatment and measured after 8 hrs by Western blot analysis; type: cell-based
[14] = biological target: T1, Protein cereblon/Tyrosine-protein kinase BTK; assay: PROTAC activity at CRBN/BTK in human Ramos cells assessed as induction of BTK degradation at 100 nM pretreated with compound for 24 hrs followed by compound washout and measured upto 48 hrs by Western blot analysis; type: cell-based
RAW264.7 [15] = assay: Cytotoxicity against mouse RAW264.7 cells assessed as reduction in cell viability upto 10 uM incubated for 24 hrs by CCK8 assay; type: toxicity, cell-based; details: raw264.7, 24 h
[16] = biological target: Protein cereblon/Tyrosine-protein kinase BTK (Mus musculus) (UniProt P35991+Q8C7D2); assay: PROTAC activity at CRBN/BTK in mouse RAW264.7 cells assessed as induction of BTK degradation by Western blot analysis; type: cell-based; details: dose 0.1-10 µM
RAW264.7 [17] = assay: Inhibition of NF-kappaB activation in LPS-stimulated mouse RAW264.7 cells assessed as reduction in phosphorylated BTK level at 0.1 to 10 uM preincubated with compound for 1 hrs followed by LPS stimulation and measured after 24 hrs by Western blot analysis; type: cell-based; details: dose 0.1-10 µM, time 25.0 hrs
RAW264.7 [18] = assay: Inhibition of NF-kappaB activation in LPS-stimulated mouse RAW264.7 cells assessed as reduction in phosphorylated p65 level at 0.1 to 10 uM preincubated with compound for 1 hrs followed by LPS stimulation and measured after 24 hrs by Western blot analysis; type: cell-based; details: dose 0.1-10 µM, time 25.0 hrs
RAW264.7 [19] = assay: Inhibition of NF-kappaB activation in LPS-stimulated mouse RAW264.7 cells assessed as prevention of IkappaB-alpha degradation at 0.1 to 10 uM preincubated with compound for 1 hrs followed by LPS stimulation and measured after 24 hrs by Western blot analysis; type: cell-based; details: dose 0.1-10 µM, time 25.0 hrs
RAW264.7 [20] = assay: Inhibition of NF-kappaB activation in LPS-stimulated mouse RAW264.7 cells assessed as inhibition of IkappaB-alpha phosphorylation at 0.1 to 10 uM preincubated with compound for 1 hrs followed by LPS stimulation and measured after 24 hrs by Western blot analysis; type: cell-based; details: dose 0.1-10 µM, time 25.0 hrs
RAW264.7 [21] = assay: Anti-inflammatory activity in LPS-stimulated mouse RAW264.7 cells assessed as reduction in IL-1beta mRNA level preincubated with compound for 2 hrs followed by LPS stimulation and measured after 3 hrs […]; type: functional, cell-based; details: dose 0.1-10 µM, time 5.0 hrs
RAW264.7 [22] = assay: Anti-inflammatory activity in LPS-stimulated mouse RAW264.7 cells assessed as reduction in IL-1beta secretion at 0.1 to 10 uM preincubated with compound for 2 hrs followed by LPS stimulation and measured after 3 hrs by ELISA analysis; type: functional, cell-based; details: dose 0.1-10 µM, time 5.0 hrs
RAW264.7 [23] = assay: Anti-inflammatory activity in LPS-stimulated mouse RAW264.7 cells assessed as reduction in IL-6 mRNA level preincubated with compound for 2 hrs followed by LPS stimulation and measured after 3 hrs […]; type: functional, cell-based; details: dose 0.1-10 µM, time 5.0 hrs
RAW264.7 [24] = assay: Anti-inflammatory activity in LPS-stimulated mouse RAW264.7 cells assessed as reduction in IL-6 secretion at 0.1 to 10 uM preincubated with compound for 2 hrs followed by LPS stimulation and measured after 3 hrs by ELISA analysis; type: functional, cell-based; details: dose 0.1-10 µM, time 5.0 hrs
Mus musculus [25] = assay: Anti-inflammatory activity in zymosan-induced peritonitis C57BL/6J mouse model assessed as reduction in myeloid cells in peritoneal cavity preadministered intraperitoneally with compound for 1 hrs followed by zymosan administration and measured after 16 hrs by trypan blue staining based optical microscopic analysis; type: functional, organism-based; details: dose 10-50 mg/kg, route ip, time 17.0 hrs
Mus musculus [26] = assay: Anti-inflammatory activity in zymosan-induced peritonitis C57BL/6J mouse model assessed as decrease in IL-1beta level in peritoneal cavity preadministered intraperitoneally with compound for 1 hrs followed by zymosan administration and measured after 16 hrs by ELISA; type: functional, organism-based; details: dose 10-50 mg/kg, route ip, time 17.0 hrs
Mus musculus [27] = assay: Anti-inflammatory activity in zymosan-induced peritonitis C57BL/6J mouse model assessed as decrease in IL-6 level in peritoneal cavity preadministered intraperitoneally with compound for 1 hrs followed by zymosan administration and measured after 16 hrs by ELISA; type: functional, organism-based; details: dose 10-50 mg/kg, route ip, time 17.0 hrs
[28] = AUC (0 to t) in Sprague-Dawley rat at 2 mg/kg, iv measured after 48 hrs by UPLC analysis; type: ADME, organism-based; details: in vivo
[29] = AUC (0 to infinity) in Sprague-Dawley rat at 2 mg/kg, iv measured after 48 hrs by UPLC analysis; type: ADME, organism-based; details: in vivo
[30] = MRT (0 to t) in Sprague-Dawley rat at 2 mg/kg, iv measured after 48 hrs by UPLC analysis; type: ADME, organism-based; details: in vivo
[31] = MRT (0 to infinity) in Sprague-Dawley rat at 2 mg/kg, iv measured after 48 hrs by UPLC analysis; type: ADME, organism-based; details: in vivo
[32] = Half-life in Sprague-Dawley rat at 2 mg/kg, iv measured after 48 hrs by UPLC analysis; type: ADME, organism-based; details: in vivo
[33] = Apparent volume of distribution in Sprague-Dawley rat at 2 mg/kg, iv measured after 48 hrs by UPLC analysis; type: ADME, organism-based; details: in vivo, read-out: Vz
[34] = Clearance in Sprague-Dawley rat at 2 mg/kg, iv measured after 48 hrs by UPLC analysis; type: ADME, organism-based; details: in vivo
[35] = Cmax in Sprague-Dawley rat at 2 mg/kg, iv measured after 48 hrs by UPLC analysis; type: ADME, organism-based; details: in vivo
[36] = AUC (0 to t) in Sprague-Dawley rat at 20 mg/kg, po by UPLC analysis; type: ADME, organism-based; details: in vivo
[37] = AUC (0 to infinity) in Sprague-Dawley rat at 20 mg/kg, po by UPLC analysis; type: ADME, organism-based; details: in vivo
[38] = MRT (0 to t) in Sprague-Dawley rat at 20 mg/kg, po by UPLC analysis; type: ADME, organism-based; details: in vivo
[39] = MRT (0 to infinity) in Sprague-Dawley rat at 20 mg/kg, po by UPLC analysis; type: ADME, organism-based; details: in vivo
[40] = Half-life in Sprague-Dawley rat at 20 mg/kg, po by UPLC analysis; type: ADME, organism-based; details: in vivo
[41] = Cmax in Sprague-Dawley rat at 20 mg/kg, po by UPLC analysis; type: ADME, organism-based; details: in vivo
[42] = Oral bioavailability in Sprague-Dawley rat at 20 mg/kg by UPLC analysis; type: ADME, organism-based; details: in vivo
[43] = Aqueous solubility of compound incubated for 24 hrs by HPLC based shake flask method; type: physicochemical; details: buffer

Protein cereblon/Tyrosine-protein kinase BTK (Mus musculus), sequence (P35991 whole entry, looked up): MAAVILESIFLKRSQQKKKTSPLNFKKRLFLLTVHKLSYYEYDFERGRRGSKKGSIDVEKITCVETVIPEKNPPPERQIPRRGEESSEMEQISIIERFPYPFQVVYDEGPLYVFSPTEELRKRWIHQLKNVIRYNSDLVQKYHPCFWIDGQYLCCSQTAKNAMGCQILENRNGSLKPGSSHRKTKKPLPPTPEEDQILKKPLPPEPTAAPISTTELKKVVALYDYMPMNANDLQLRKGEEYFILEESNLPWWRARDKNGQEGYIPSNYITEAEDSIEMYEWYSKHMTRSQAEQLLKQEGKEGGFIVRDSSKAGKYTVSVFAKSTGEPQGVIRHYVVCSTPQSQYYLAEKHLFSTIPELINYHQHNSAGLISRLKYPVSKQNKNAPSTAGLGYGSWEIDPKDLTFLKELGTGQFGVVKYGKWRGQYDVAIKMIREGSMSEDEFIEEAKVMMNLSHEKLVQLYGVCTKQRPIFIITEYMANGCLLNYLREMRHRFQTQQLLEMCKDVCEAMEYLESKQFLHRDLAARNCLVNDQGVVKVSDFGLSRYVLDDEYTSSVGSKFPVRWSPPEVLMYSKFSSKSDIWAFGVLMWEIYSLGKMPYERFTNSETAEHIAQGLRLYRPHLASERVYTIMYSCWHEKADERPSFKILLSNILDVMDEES
Protein cereblon/Tyrosine-protein kinase BTK (Mus musculus), sequence (Q8C7D2 whole entry, looked up): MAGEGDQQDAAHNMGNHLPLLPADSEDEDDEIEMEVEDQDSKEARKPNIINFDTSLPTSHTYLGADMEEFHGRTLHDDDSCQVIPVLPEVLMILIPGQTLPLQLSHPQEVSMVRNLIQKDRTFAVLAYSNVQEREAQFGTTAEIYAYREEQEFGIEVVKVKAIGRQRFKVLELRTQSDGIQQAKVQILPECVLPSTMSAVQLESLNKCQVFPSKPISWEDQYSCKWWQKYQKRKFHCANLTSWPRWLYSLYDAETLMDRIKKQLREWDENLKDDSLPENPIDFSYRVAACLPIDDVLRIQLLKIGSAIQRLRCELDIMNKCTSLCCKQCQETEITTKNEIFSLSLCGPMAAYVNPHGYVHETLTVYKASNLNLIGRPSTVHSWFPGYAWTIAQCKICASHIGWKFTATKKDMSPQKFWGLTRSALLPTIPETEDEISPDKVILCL

- Activity [1]: 99.4%
- EC50 [2]: 3.18 nM
- Emax [3]: 99.9%
- Activity [4]: Active
- EC50 [5]: 7.07 nM
- Emax [6]: 100%
- Activity [7]: inactive
- Activity [8]: Active
- Activity [9]: 100%
- Activity [10]: inactive
- Activity [11]: inactive
- Activity [12]: inactive
- Activity [13]: Active
- Activity [14]: Active
- Activity [16]: Dose-Dependent Effect
- AUC(0-t) at 48 h [28]: 926 ng·h/mL
- AUC(0-inf) [29]: 934 ng·h/mL
- MRT last at 48 h [30]: 1.27 h
- MRT inf [31]: 1.37 h
- half-life [32]: 1.82 h
- Vd [33]: 5.85 L/kg
- clearance [34]: 37.5 mL/min/kg
- Cmax [35]: 1890 ng/mL
- AUC(0-t) [36]: 27.1 ng·h/mL
- AUC(0-inf) [37]: 29 ng·h/mL
- MRT last [38]: 4.95 h
- MRT inf [39]: 5.23 h
- half-life [40]: 2.12 h
- Cmax [41]: 9.7 ng/mL
- bioavailability [42]: 0.25%
- solubility thermodynamic at 24 h [43]: 8.16 µg/mL (≈ 9.74 µM)
SMILES: Nc1ncnc2c1c(-c1ccc(Oc3ccccc3)cc1)nn2C1CCN(C(=O)CN2CCN(CC3CN(c4ccc5c(c4)C(=O)N(C4CCC(=O)NC4=O)C5=O)C3)CC2)CC1 (stereo not drawn)
- Activity (RAW264.7 [15]): Non-Toxic
- inhibition (RAW264.7 [17]): Active
- inhibition (RAW264.7 [18]): Active
- inhibition (RAW264.7 [19]): Active
- inhibition (RAW264.7 [20]): Active
- Activity (RAW264.7 [21]): Dose-Dependent Effect
- Activity (RAW264.7 [22]): Active
- Activity (RAW264.7 [23]): Dose-Dependent Effect
- Activity (RAW264.7 [24]): Active
- Activity (Mus musculus [25]): Dose-Dependent Effect
- Activity (Mus musculus [26]): Dose-Dependent Effect
- Activity (Mus musculus [27]): Dose-Dependent Effect
